Common to all, as to assay: growth of human tumour cells (NCI), 48 h
For assay [1], the system named is A498.
Assay [2] deals with ACHN.
The test system of assay [3] is COLO 205.
Assay [4] relates to HCT-116.
Assay [5] deals with HT-29.
The test system of assay [6] is M14.
The subject of assay [7] is MCF7.
Assay [8] relates to MDA-MB-435.
Assay [9] concerns MOLT-4.
The subject of assay [10] is NCI-H23.
The test system of assay [11] is NCI-H460.
The test system of assay [12] is NCI/ADR-RES.
The subject of assay [13] is OVCAR-3.
The test system of assay [14] is OVCAR-8.
Assay [15] has as its system PC-3.
The subject of assay [16] is RXF 393.
In assay [17] the test system is SN12C.
Assay [18] deals with SNB-19.
The test system of assay [19] is UACC-257.
Assay [20] relates to UACC-62.

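Grown in 96-well plates, cells were treated for 48 hours with each compound at five concentrations. Insufficient inhibition: endpoint recorded as highest concentration tested. At the GI50, growth is halved.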 Activity calls are given as the source filed them. Rule as the data show it: active = GI50 up to about 1.1 µM and inactive = higher.

As to `CN(C)CCNC(=O)c1cccc2nc3cccc(F)c3nc12`, the GI50 in [1] is 1.91 µM (inactive); in [2] it was 0.484 µM (active); in assay [3], 0.317 µM (active); in assay [4], 0.542 µM (active); in [5], 0.867 µM (active); in assay [6] it was 2.01 µM (inactive). The GI50 in [7] is 1.48 µM (inactive); in [8] it was 1.56 µM (inactive); in [9], 0.366 µM (active); in assay [10] it was 1.5 µM (inactive); in assay [11] it was 0.579 µM (active); in [12], 1.39 µM (inactive). Besides, the GI50 is 1.99 µM (inactive) in assay [13]; 0.843 µM (active) in assay [14]; 1.38 µM (inactive) in assay [15]; 1.54 µM (inactive) in assay [16]; 1.02 µM (active) in [17]; 2.21 µM (inactive) in [18]. In addition, the results for the GI50 in assay [19] and in [20] were 1.39 µM (inactive) and 2.88 µM (inactive), respectively.

With `Cc1c(C)c(C)c(CSC(=N)N)c(C)c1C`, the GI50 is 16.2 µM (inactive) in [1]; 16.6 µM (inactive) in [2]; 14.9 µM (inactive) in [3]; 12.7 µM (inactive) in [4]; 12.5 µM (inactive) in assay [5]; 10.8 µM (inactive) in assay [6]. Moreover, the GI50 was 17.1 µM (inactive) in assay [7]; 14.2 µM (inactive) in assay [8]; 15.5 µM (inactive) in [9]; 16.5 µM (inactive) in assay [10]; 13.2 µM (inactive) in [11]; 15.2 µM (inactive) in assay [12]. Further, the GI50 in [13] was 16.5 µM (inactive); in assay [14] it was 24.1 µM (inactive); in [15], 12.2 µM (inactive); in [16] it was 17.5 µM (inactive); in [17] it was 16.3 µM (inactive); in assay [18] it was 14.6 µM (inactive). In addition, the GI50 in assay [19] is 14.2 µM (inactive); in assay [20], 11.9 µM (inactive).

As for `O=C(c1ccccc1)c1c(C(F)(F)F)[n+]([O-])c2ccccc2[n+]1[O-]`, the GI50 in assay [1] is 2.19 µM (inactive); in assay [2], 1.36 µM (inactive); in assay [3], 1.18 µM (inactive); in assay [4], 0.977 µM (active); in assay [5] it was 0.687 µM (active); in [6], 2.58 µM (inactive). The GI50 in assay [7] is 0.652 µM (active); in assay [8] it was 0.798 µM (active); in assay [9], 0.129 µM (active); in assay [10] it was 1.43 µM (inactive); in assay [11], 0.855 µM (active); in assay [12], 0.469 µM (active). Moreover, the GI50 in [13] was 0.343 µM (active); in [14], 0.543 µM (active); in [15] it was 0.29 µM (active); in assay [16] it was 1.46 µM (inactive); in [17], 0.951 µM (active); in assay [18] it was 1.44 µM (inactive). Further, the GI50 in [19] is 1.84 µM (inactive); in assay [20] it was 1.68 µM (inactive).

`CC(=O)Nc1sc(Br)cc1S(=O)(=O)c1ccc(Cl)cc1`: the GI50 in assay [1] was 47.2 µM (inactive); in [2], 34 µM (inactive); in assay [3] it was > 10 µM (inactive); in assay [4], 26.1 µM (inactive); in assay [5] it was 16.9 µM (inactive); in assay [6], 15.2 µM (inactive). Further, the GI50 in assay [7] is 12.8 µM (inactive); in assay [8], 28.1 µM (inactive); in [9], 35.1 µM (inactive); in [10], 29.4 µM (inactive); in [11], 33.7 µM (inactive); in assay [12], 21.9 µM (inactive). Further, the GI50 in assay [13] is 20.5 µM (inactive); in assay [14], 26.9 µM (inactive); in [15] it was 17.9 µM (inactive); in assay [16] it was 20 µM (inactive); in assay [17] it was 71.9 µM (inactive); in assay [18], 46.6 µM (inactive). Besides, the GI50 in [19] is 29.9 µM (inactive); in [20], 38.1 µM (inactive).

As for `CCOC(=O)c1nnc2c(C#N)c(-c3ccccc3)c(C)n2c1N`, the GI50 in assay [1] is 26.8 µM (inactive); in [2] it was 29.9 µM (inactive); in assay [3], 32.9 µM (inactive); in assay [4] it was 42.2 µM (inactive); in [5] it was 33.7 µM (inactive); in assay [6] it was 34.9 µM (inactive). For the same molecule, the GI50 in assay [7] was 39.4 µM (inactive); in assay [8], 32 µM (inactive); in assay [9] it was 30.5 µM (inactive); in assay [10], 38.3 µM (inactive); in assay [11], 39.8 µM (inactive); in [12] it was 38.8 µM (inactive). Also, the GI50 in assay [13] is 29.4 µM (inactive); in assay [14], 28.4 µM (inactive); in [15] it was 82.4 µM (inactive); in [16], 98.4 µM (inactive); in assay [17] it was 37.8 µM (inactive); in assay [18], 21.3 µM (inactive). The GI50 in assay [19] was 25.4 µM (inactive); in assay [20], 23.9 µM (inactive).

For `N/C(=N\NC(=O)c1nc2ccccc2s1)c1ccccn1`, the GI50 in assay [1] is 8.34 µM (inactive); in assay [2], 2.87 µM (inactive); in [3] it was 4.73 µM (inactive); in [4], 3.28 µM (inactive); in [5], 4.08 µM (inactive); in assay [6], 3.01 µM (inactive). The GI50 was 4.39 µM (inactive) in assay [7]; 7.1 µM (inactive) in assay [8]; 1.29 µM (inactive) in assay [9]; 9.86 µM (inactive) in [10]; 2.85 µM (inactive) in assay [11]; 1.11 µM (active) in [12]. The GI50 in [13] is 3.92 µM (inactive); in assay [14], 5.33 µM (inactive); in assay [15], 9.31 µM (inactive); in [16], 7.96 µM (inactive); in assay [17] it was 1.61 µM (inactive); in [18], 16 µM (inactive). Also, the GI50 was 15.6 µM (inactive) in assay [19] and 3.95 µM (inactive) in [20].

Take `Cc1cc(C)cc(Nc2nnc3n2S(=O)(=O)c2cc(C)c(Cl)cc2S3)c1`: the GI50 in assay [1] was 5.09 µM (inactive); in assay [2] it was 7.66 µM (inactive); in assay [3], 4.72 µM (inactive); in assay [4] it was 3.48 µM (inactive); in assay [5], 7.26 µM (inactive); in [6], 8.09 µM (inactive). For the same molecule, the GI50 was 3.77 µM (inactive) in assay [7]; 6.03 µM (inactive) in [8]; 3.08 µM (inactive) in assay [9]; 2.96 µM (inactive) in [10]; 4.29 µM (inactive) in assay [11]; 2.99 µM (inactive) in assay [12]. For the same molecule, the GI50 was 4.27 µM (inactive) in assay [13]; 3.97 µM (inactive) in [14]; 2.77 µM (inactive) in [15]; 3.03 µM (inactive) in assay [16]; 5.61 µM (inactive) in assay [17]; 4.3 µM (inactive) in assay [18]. Moreover, the GI50 in assay [19] was 4.35 µM (inactive); in assay [20], 5.65 µM (inactive).

For the origin of these results see ChEMBL document CHEMBL1201862, “PubChem BioAssay data set” (2004).
